In patent US20240077423A1, “A TRANSCRIPTIONAL REGULATOR SPECIFICALLY RESPONDING TO D-2-HYDROXYGLUTARATE AND APPLICATION THEREOF” (SHANDONG UNIVERSITY, priority 2021, published 2024):
Changes are numbered by the printed parent chain. Entries after “also recorded” stand apart in the source; their conditions may differ.

T1: DhdR (Achromobacter denitrificans NBRC 15125)
T1 chain: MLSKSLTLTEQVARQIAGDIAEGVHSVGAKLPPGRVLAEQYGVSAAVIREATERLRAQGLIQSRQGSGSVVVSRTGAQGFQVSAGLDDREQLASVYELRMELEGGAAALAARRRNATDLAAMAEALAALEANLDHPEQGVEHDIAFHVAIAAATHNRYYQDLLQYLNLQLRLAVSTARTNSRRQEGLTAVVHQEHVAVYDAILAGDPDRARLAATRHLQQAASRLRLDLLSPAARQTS

B1: dhdO (dsDNA)
DNA 1: GAGTCGCGGCGGCGCGCCGGATCCGGGCTGTCATTGTCAAAAGTTATCAGATAACCTGAAAAGTAGGCCTATAATCGGCGC
DNA 2: GCGCCGATTATAGGCCTACTTTTCAGGTTATCTGATAACTTTTGACAATGACAGCCCGGATCCGGCGCGCCGCCGCGACTC
B2: biotinylated dhdO-1 (dsDNA)
DNA 1: B1 DNA 1 with G43T
DNA 2: B1 DNA 2 with C39A
B3: biotinylated dhdO (dsDNA)
DNA 1: B1 DNA 1
DNA 2: B1 DNA 2

Experiments:
binding of DhdR to dhdO = test: Analysis of DhdR effector by electrophoretic mobility shift assays; set-up: species or system Achromobacter denitrificans NBRC 15125; details: 40 mM compound, 70 nM DhdR, dhdO target DNA, EMSA, FIG. 2
Procedure: DhdR is incubated with different compounds (D-2-HG, L-2-HG, D-malate, D-lactate, glutarate, 2-ketoglutarate, or pyruvate) respectively. Then, the target DNA fragment dhdO is added. The influence on the binding capacity of DhdR and the target DNA fragment dhdO in the presence of the different compounds is analyzed through electrophoresis separation, staining, and imaging.
(§1) The dhdO nucleotide fragment obtained in step (2) above was diluted to 100 nM using binding buffer, and the purified DhdR protein was diluted to 2000 nM. 70 nM purified DhdR protein was first incubated with 40 mM different compounds (D-2-HG, L-2-HG, D-malate, D-lactate, glutarate, 2-ketoglutarate, or pyruvate) at 30° C. for 15 minutes in 18 μL binding buffer. Subsequently, 2 μL of 100 nM dhdO was added and incubated at 30° C. for another 30 min. 10 μL of the sample was analyzed by electrophoresis with 6% native polyacrylamide at 170 V for 45 min on ice. The gel was then stained with SYBR Green I for 30 min avoiding light and photographed by gel imager. […] DhdR can bind to dhdO in the absence of D-2-HG. However, when D-2-HG is present, DhdR will be dissociated from dhdO.

DhdR [1] = biological target: T1, DhdR; test: EMSA; 70 nM DhdR, 10 nM dhdO, 30 C; 40 mM D-2-HG inhibits binding; L-2-HG, D-malate, D-lactate, glutarate, 2-ketoglutarate, pyruvate do not; details: tags: His6 (pETDuet-1, E. coli BL21(DE3))
Procedure: as §1

DhdR [2] = biological target: T1, DhdR; test: AlphaScreen-type bead luminescence, HBS-P pH 7.4; D-2-HG dissociates complex, LOD 0.08 uM, range about 0.3-20 uM; details: tags: His6 (pETDuet-1, E. coli BL21(DE3)); label: 5'-biotin
Procedure: 5 μL biotinylated dhdO-1 fragment, 5 μL DhdR protein and 5 μL solution containing D-2-HG were added into a white 384-well plate, mixed evenly by the oscillation function of a microplate reader, and incubated in dark at room temperature for 30 minutes. Then, 5 μL acceptor beads (20 μg/mL) were added and incubated in dark at room temperature for 30 minutes. Finally, 5 μL donor beads (20 μg/mL) were added and incubated in dark at room temperature for 60 minutes. The luminescence signal was measured by EnSight Multimode Plate Reader. The excitation wavelength was 680 nm and the detection wavelength was 520-620 nm. The background signal without a D-2-HG biosensor was deducted at each emission wavelength.
(§2) According to the method of detecting the luminescence signal described in (2), a gradient D-2-HG solution dissolved in HBS-P buffer was used and mixed with 5 μL of 1 nM biotinylated dhdO-1 fragment, 0.3 nM DhdR protein, donor beads, and acceptor beads. The luminescence signal was detected to plot the dose-response curves.

DhdR [3] = biological target: T1, DhdR; test: AlphaScreen-type bead luminescence, HBS-P pH 7.4; D-2-HG dissociates complex, LOD 0.8 uM, range about 2-50 uM; details: tags: His6 (pETDuet-1, E. coli BL21(DE3)); label: 5'-biotin
Procedure: as §2, with “dhdO” for “dhdO-1”
The combination of the 1 nM biotinylated dhdO fragment, 0.3 nM DhdR protein, 20 μg/mL donor beads, and 20 μg/mL acceptor beads was named as D-2-HG biosensor BD2HG-0, with a limit of detection of 0.8 μM and a detection range of about 2-50 μM.

Row | Molecule | effect on the binding of DhdR to dhdO (binding of DhdR to dhdO) | other results
1 | O=C(O)CCC(=O)C(=O)O [2-ketoglutarate] | could not interfere with the binding of DhdR to dhdO | 
2 | O=C(O)C[C@@H](O)C(=O)O [D-malate] | could not interfere with the binding of DhdR to dhdO | 
3 | O=C(O)CC[C@@H](O)C(=O)O [D-2-HG, D-2-Hydroxyglutarate] | prevents the binding of DhdR and the target DNA fragment dhdO; also recorded: could inhibit the binding of DhdR to dhdO | 
4 | C[C@@H](O)C(=O)O [D-lactate] | could not interfere with the binding of DhdR to dhdO | 
5 | O=C(O)CC[C@H](O)C(=O)O [L-2-HG, L-2-hydroxyglutarate] | could not interfere with the binding of DhdR to dhdO | 
6 | B1 |  | binding result (DhdR [1]): binds
7 | B2 |  | binding result (DhdR [2]): binds
8 | B3 |  | binding result (DhdR [3]): binds
